In patent publication US12139505B2, “Compositions useful in therapy of autophagy-related pathologies, and methods of making and using the same” (The University of Toledo, priority 2017, dated 2024):
“Also recorded” adds a separate entry of the source.

Columns and labels:
[1] = Stability of the isolated solid to high vacuum; type: physicochemical; settings: isolated white solid, at least overnight
RG2 glioma cells = assay: Autophagic flux assay (LC3-II western blot in the presence of bafilomycin-A1); type: cell-based, rat; settings: RG2 glioma cells, 4 h, 50 nM bafilomycin-A1, western blot
Protocol: In the assay, cells are treated with subtoxic concentrations of bafilomycin-A, which blocks lysosomal acidification. This prevents autophagosome fusion with lysosomes at a specific point. For example, RG2 glioma cells (or other cell types) are “clamped” by addition of 10-50 nM bafilomycin-A1 to block autophagosome fusion with lysosomes and eliminate autophagy clearance. Then, autophagy flux is measured by the conjugation of phosphatidylethanolamine to LC3-I, yielding an electrophoretically separable LC3-II by western blot. LC3-II acts as a link between nascent autophagosomes and cargo being directed into these structures. An autophagy enhancer will increase LC3-II in the presence of bafilomycin, whereas a compound that inhibits autophagy completion will not do so. Thus, the L3A-I to LC3A-II conversion in the presence of bafilomycin-A1 constitutes a valid measure of autophagy.
For the assays, rat glioma cells RG2 (ATCC® CRL-2433™; RG2 cells) were cultured. […] The cells were then incubated for an additional 4 h. At termination, the cell culture medium was removed, cells were washed with PBS and lysed on ice in Pierce RIPA buffer containing protease and phosphatase inhibitors.
Western Blotting: The proteins were electrophoresed and wet-blotted to polyvinylidine difluoride membranes, blocked overnight in 4% bovine serum albumin, and developed using antibodies obtained from Cell Signaling Technology (L3A: cat #. 4599; ULK1: cat #. 8054, ULK1(p757): cat #. 6880).
RG2 glioma cells were treated without drug (first column in FIG. 8A) or 4 h with 50 nM bafilomycin-A1 (BAF), the indicated concentration of LK, or the phosphonate analog 2-isopropyl-LK-3-phosphonate. The western blot results are shown in FIG. 8A, where the lower band corresponds to LC3-II. An increase in the intensity of this band in the presence of bafilomycin-A1 indicates increased autophagic flux. […] Similar results are shown in FIG. 9 with respect to the LK-P compound 2-butyl-lanthionine-phosphonate (also referred to as 2-n-butyl-lanthionine-phosphonate or 2-n-butyl-LK-P).
RG2 glioma cells (American Tissue Type Collection, ATTC, Rockville MD USA) were treated for 4 h with 50 nM bafilomycin-A1 (previously dissolved to 1000× final concentration in dimethylsulfoxide). Thirty minutes after addition of bafilomycin, cells were treated with test agents at 100× final concentration. Cells were lysed in RIPA buffer containing protease and phosphatase inhibitors. Protein concentration was assayed and normalized to constant values (typically 5-7 mg/mL). Proteins were electrophoresed across 4-20% polyacrylamide gels and wet blotted onto polyvinylidine difluoride (PVDF) membranes. Proteins were blotted with commercially available antibodies against LC3.

HeLa cells = assay: Rescue of HeLa cells from TNFa toxicity, tetrazolium reduction assay; type: cell-based; settings: 20 h 10 ng/mL TNFa, 10 micromolar cycloheximide
Protocol: HeLa cells were treated 20 h with 10 ng/mL recombinant human TNFa in the presence of 10 micromolar cycloheximide and viability measured by tetrazolium reduction assay.

[2] = measurement of brain LKE levels and animal studies; cited from earlier work
SOD1^G93A mouse = settings: cited from earlier work
3×Tg-AD mouse = settings: cited from earlier work
pMCAO = settings: after pMCAO; cited from earlier work
ULK1 system in RG2 cells = assay: ULK1/ULK1(p757) quantitative autophagy stimulation assay; type: cell-based, rat; settings: 24 h in RG2 cells; read-out: EC50 on the ULK1 system (ULK1 increase and ULK1(p757) decrease)
Text: For validation purposes, a second, quantitative autophagy stimulation assay was utilized.

C6 glioma tumor = settings: C6 glioma xenograft into rat cortices; cited from earlier work
people with ALS = settings: cited from earlier work

CCCCC1=C(P(=O)(O)O)N[C@H](C(=O)O)CS1
stability to high vacuum pressures [1]: stable to high vacuum pressures at least overnight without visual or spectral decomposition | autophagic flux / autophagy stimulation (LC3-II band in the presence of bafilomycin-A1) (RG2 glioma cells): comparable activity; also recorded: stimulate autophagy to varying degrees; also recorded: greater autophagy activation effect than LKE | autophagic flux / autophagy stimulation (LC3-II band in the presence of bafilomycin-A1) (RG2 glioma cells; listed as 2-butyl-LK-P): more effective at inducing autophagic flux than, inter alia, LK-E

CC(C)C1=C(P(=O)(O)O)NCCS1 [2-isopropyl-AECK-P]
autophagic flux / autophagy stimulation (LC3-II band in the presence of bafilomycin-A1) (RG2 glioma cells): greater autophagy activation effect than LKE | autophagic flux / autophagy stimulation (LC3-II band in the presence of bafilomycin-A1) (RG2 glioma cells; listed as 2-isopropyl AECK-P): comparable activity

CC(C)C1=C(P(=O)(O)O)N[C@H](C(=O)O)CS1 [2-isopropyl-LK-P, 2-isopropyl lanthionine ketimine phosphonate]
cell death stemming from TNFa treatment (HeLa cells): reduced cell death | EC50 (HeLa cells; Homo sapiens, HeLa, compound 1 h before, read-out: EC50% for reduction of cell death from TNFa): ~10 mM | stability to high vacuum pressures [1]: stable to high vacuum pressures at least overnight without visual or spectral decomposition | autophagic flux / autophagy stimulation (LC3-II band in the presence of bafilomycin-A1) (RG2 glioma cells): stimulates autophagy in RG2 cells at low micromolar concentrations; also recorded: much more potent stimulator of autophagy than LK; also recorded: comparable activity; also recorded: stimulate autophagy to varying degrees; also recorded: increase autophagic flux | autophagic flux / autophagy stimulation (LC3-II band in the presence of bafilomycin-A1) (RG2 glioma cells; listed as 2-isopropyl lanthionine-ketimine-phosphonate): clearly was more potent at 10 mM than was LK | autophagic flux / autophagy stimulation (LC3-II band in the presence of bafilomycin-A1) (RG2 glioma cells; listed as 2-isopropyl-lanthionine-ketimine-3-phosphonate): clearly more potent at 10 μM than LK was

CCOC(=O)[C@@H]1CSC(CC)=C(C(=O)O)N1 [Compound 2-ethyl-LKE]
autophagic flux / autophagy stimulation (LC3-II band in the presence of bafilomycin-A1) (RG2 glioma cells): stimulate autophagy in RG2 cells

O=C(O)C1=CSC[C@@H](C(=O)O)N1 [LK, (5R)-3,5,-dicarboxy-1-thia-4-aza-2-cyclohexene, reference compound]
autophagic flux / autophagy stimulation (LC3-II band in the presence of bafilomycin-A1) (RG2 glioma cells): increase autophagic flux

CCOC(=O)C1=CSCC(C(=O)O)N1 (stereo not shown) [LKE, lanthionine ketenamine ethyl ester]
βββ (blood brain barrier) penetrability [2]: good βββ penetrability | lifespan and motor function (SOD1^G93A mouse): increases lifespan and slows decline of motor function | amyloid burden, phospho-tau, microglial activation, cognitive decline (3×Tg-AD mouse): decreases amyloid burden inside neurons and in plaques, decreases phospho-tau accumulation, decreases microglial activation, and slows cognitive decline | autophagic flux / autophagy stimulation (LC3-II band in the presence of bafilomycin-A1) (RG2 glioma cells): stimulate autophagy to varying degrees | infarct volume and functional recovery (pMCAO): decreases infarct volume and improves functional recovery | EC50 (ULK1 system in RG2 cells): ~50 nM | tumor growth (C6 glioma tumor): slows growth of C6 glioma tumor

Nc1nc2ccc(OC(F)(F)F)cc2s1 [Riluzole]
prolongation of life (people with ALS; ALS patients): 2-3 months

CC1=NN(c2ccccc2)C(=O)C1 [edaravone]
clinical decline in daily functioning (people with ALS; people with ALS): slows the clinical decline in daily functioning
